Source: ChEMBL document CHEMBL1146694, “Novel targeting strategy based on multimeric ligands for drug delivery and molecular imaging: homooligomers of alpha-MSH” (Bioorg Med Chem Lett, 2004)

Key:
[1] = Hill coefficient was determined; assay type: ADME
Melanocortin receptor 4 = Melanocortin receptor 4 (Homo sapiens, UniProt P32245); assay: Binding affinity towards human melanocortin 4 receptor was determined using [125I]-NDP-alpha-MSH as radioligand transfected in HEK293 human embryonic kidney cells; assay type: cell-based; conditions: read-out: EC50
Melanocortin receptor 4, sequence (P32245 whole entry): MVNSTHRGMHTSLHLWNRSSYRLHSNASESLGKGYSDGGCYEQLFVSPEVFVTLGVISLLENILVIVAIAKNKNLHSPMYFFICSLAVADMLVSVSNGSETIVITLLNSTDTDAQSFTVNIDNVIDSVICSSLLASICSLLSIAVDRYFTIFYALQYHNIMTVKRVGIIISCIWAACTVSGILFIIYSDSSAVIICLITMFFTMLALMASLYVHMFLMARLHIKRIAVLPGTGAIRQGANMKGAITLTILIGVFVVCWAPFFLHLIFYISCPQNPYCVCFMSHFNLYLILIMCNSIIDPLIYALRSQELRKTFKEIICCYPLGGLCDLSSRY

CC(=O)N[C@@H](Cc1c[nH]cn1)C(=O)N[C@H](Cc1ccccc1)C(=O)N[C@@H](CCCN=C(N)N)C(=O)N[C@@H](Cc1c[nH]c2ccccc12)C(=O)NCCC(=O)NCC(=O)NCCC(=O)NCC(=O)NCCC(=O)NCC(=O)NCCC(=O)N[C@@H](Cc1c[nH]cn1)C(=O)N[C@H](Cc1ccccc1)C(=O)N[C@@H](CCCN=C(N)N)C(=O)N[C@@H](Cc1c[nH]c2ccccc12)C(N)=O
Hill coefficient [1]: 0.88 | binding affinity (radioligand displacement) (Melanocortin receptor 4): 571 nM

CC(=O)N[C@@H](Cc1c[nH]cn1)C(=O)N[C@H](Cc1ccccc1)C(=O)N[C@@H](CCCN=C(N)N)C(=O)N[C@@H](Cc1c[nH]c2ccccc12)C(=O)Nc1ccc(C(=O)Nc2ccc(C(=O)N[C@@H](Cc3c[nH]cn3)C(=O)N[C@H](Cc3ccccc3)C(=O)N[C@@H](CCCN=C(N)N)C(=O)N[C@@H](Cc3c[nH]c4ccccc34)C(N)=O)cc2)cc1
Hill coefficient [1]: 1.12 | binding affinity (radioligand displacement) (Melanocortin receptor 4): 123 nM

CC(=O)N[C@@H](Cc1c[nH]cn1)C(=O)N[C@H](Cc1ccccc1)C(=O)N[C@@H](CCCN=C(N)N)C(=O)N[C@@H](Cc1c[nH]c2ccccc12)C(=O)N1CCC[C@H]1C(=O)NCC(=O)N1CCC[C@H]1C(=O)N[C@@H](Cc1c[nH]cn1)C(=O)N[C@H](Cc1ccccc1)C(=O)N[C@@H](CCCN=C(N)N)C(=O)N[C@@H](Cc1c[nH]c2ccccc12)C(N)=O
Hill coefficient [1]: 0.84 | binding affinity (radioligand displacement) (Melanocortin receptor 4): 14 nM

CC(=O)N[C@@H](Cc1c[nH]cn1)C(=O)N[C@H](Cc1ccccc1)C(=O)N[C@@H](CCCN=C(N)N)C(=O)N[C@@H](Cc1c[nH]c2ccccc12)C(=O)Nc1ccc(C(=O)N[C@@H](Cc2c[nH]cn2)C(=O)N[C@H](Cc2ccccc2)C(=O)N[C@@H](CCCN=C(N)N)C(=O)N[C@@H](Cc2c[nH]c3ccccc23)C(N)=O)cc1
Hill coefficient [1]: 1.05 | binding affinity (radioligand displacement) (Melanocortin receptor 4): 38 nM

CC(=O)N[C@@H](Cc1c[nH]cn1)C(=O)N[C@H](Cc1ccccc1)C(=O)N[C@@H](CCCN=C(N)N)C(=O)N[C@@H](Cc1c[nH]c2ccccc12)C(=O)N[C@@H](Cc1c[nH]cn1)C(=O)N[C@H](Cc1ccccc1)C(=O)N[C@@H](CCCN=C(N)N)C(=O)N[C@@H](Cc1c[nH]c2ccccc12)C(N)=O
Hill coefficient [1]: 0.9 | binding affinity (radioligand displacement) (Melanocortin receptor 4): 264 nM

CC(=O)N[C@@H](Cc1c[nH]cn1)C(=O)N[C@H](Cc1ccccc1)C(=O)N[C@@H](CCCN=C(N)N)C(=O)N[C@@H](Cc1c[nH]c2ccccc12)C(=O)NCCC(=O)NCC(=O)NCCC(=O)NCC(=O)NCCC(=O)N[C@@H](Cc1c[nH]cn1)C(=O)N[C@H](Cc1ccccc1)C(=O)N[C@@H](CCCN=C(N)N)C(=O)N[C@@H](Cc1c[nH]c2ccccc12)C(N)=O
Hill coefficient [1]: 1.09 | binding affinity (radioligand displacement) (Melanocortin receptor 4): 231 nM

CCCC[C@H](NC(C)=O)C(=O)N[C@@H](CCC(=O)O)C(=O)N[C@@H](Cc1cnc[nH]1)C(=O)N[C@H](Cc1ccccc1)C(=O)N[C@@H](CCCNC(=N)N)C(=O)N[C@@H](Cc1c[nH]c2ccccc12)C(=O)NCCC(=O)NCC(=O)NCCC(=O)N[C@@H](CCCC)C(=O)N[C@@H](CCC(=O)O)C(=O)N[C@@H](Cc1cnc[nH]1)C(=O)N[C@H](Cc1ccccc1)C(=O)N[C@@H](CCCNC(=N)N)C(=O)N[C@@H](Cc1c[nH]c2ccccc12)C(N)=O
Hill coefficient [1]: 0.91 | binding affinity (radioligand displacement) (Melanocortin receptor 4): 7 nM

CC(=O)N[C@@H](Cc1cnc[nH]1)C(=O)N[C@H](Cc1ccccc1)C(=O)N[C@@H](CCCNC(=N)N)C(=O)N[C@@H](Cc1c[nH]c2ccccc12)C(=O)NCCC(=O)NCC(=O)NCCC(=O)N[C@@H](Cc1cnc[nH]1)C(=O)N[C@H](Cc1ccccc1)C(=O)N[C@@H](CCCNC(=N)N)C(=O)N[C@@H](Cc1c[nH]c2ccccc12)C(N)=O
Hill coefficient [1]: 0.99 | binding affinity (radioligand displacement) (Melanocortin receptor 4): 143 nM

CC(=O)N[C@@H](Cc1c[nH]cn1)C(=O)N[C@H](Cc1ccccc1)C(=O)N[C@@H](CCCN=C(N)N)C(=O)N[C@@H](Cc1c[nH]c2ccccc12)C(=O)NCCC(=O)N[C@@H](Cc1c[nH]cn1)C(=O)N[C@H](Cc1ccccc1)C(=O)N[C@@H](CCCN=C(N)N)C(=O)N[C@@H](Cc1c[nH]c2ccccc12)C(N)=O
Hill coefficient [1]: 1.39 | binding affinity (radioligand displacement) (Melanocortin receptor 4): 119 nM

CC(=O)N[C@@H](Cc1c[nH]cn1)C(=O)N[C@H](Cc1ccccc1)C(=O)N[C@@H](CCCN=C(N)N)C(=O)N[C@@H](Cc1c[nH]c2ccccc12)C(=O)NCCOCCOCCNC(=O)CCC(=O)N[C@@H](Cc1c[nH]cn1)C(=O)N[C@H](Cc1ccccc1)C(=O)N[C@@H](CCCN=C(N)N)C(=O)N[C@@H](Cc1c[nH]c2ccccc12)C(N)=O
Hill coefficient [1]: 1.1 | binding affinity (radioligand displacement) (Melanocortin receptor 4): 234 nM

CC(=O)N[C@@H](Cc1cnc[nH]1)C(=O)N[C@H](Cc1ccccc1)C(=O)N[C@@H](CCCNC(=N)N)C(=O)N[C@@H](Cc1c[nH]c2ccccc12)C(=O)Nc1ccc(C(=O)Nc2ccc(C(=O)Nc3ccc(C(=O)N[C@@H](Cc4cnc[nH]4)C(=O)N[C@H](Cc4ccccc4)C(=O)N[C@@H](CCCNC(=N)N)C(=O)N[C@@H](Cc4c[nH]c5ccccc45)C(N)=O)cc3)cc2)cc1
Hill coefficient [1]: 1.05 | binding affinity (radioligand displacement) (Melanocortin receptor 4): 164 nM

CCCC[C@H](NC(C)=O)C(=O)N[C@@H](CCC(=O)O)C(=O)N[C@@H](Cc1c[nH]cn1)C(=O)N[C@H](Cc1ccccc1)C(=O)N[C@@H](CCCN=C(N)N)C(=O)N[C@@H](Cc1c[nH]c2ccccc12)C(=O)NCCOCCOCCNC(=O)CCC(=O)N[C@@H](CCCC)C(=O)N[C@@H](CCC(=O)O)C(=O)N[C@@H](Cc1c[nH]cn1)C(=O)N[C@H](Cc1ccccc1)C(=O)N[C@@H](CCCN=C(N)N)C(=O)N[C@@H](Cc1c[nH]c2ccccc12)C(N)=O
Hill coefficient [1]: 1.23 | binding affinity (radioligand displacement) (Melanocortin receptor 4): 9 nM

CC(=O)N[C@@H](Cc1c[nH]cn1)C(=O)N[C@H](Cc1ccccc1)C(=O)N[C@@H](CCCN=C(N)N)C(=O)N[C@@H](Cc1c[nH]c2ccccc12)C(=O)NCCCC[C@H](NC(=O)CCNC(=O)CNC(=O)CCNC(=O)[C@H](Cc1c[nH]c2ccccc12)NC(=O)[C@H](CCCN=C(N)N)NC(=O)[C@@H](Cc1ccccc1)NC(=O)[C@H](Cc1c[nH]cn1)NC(C)=O)C(=O)NCCC(=O)NCC(=O)NCCC(=O)N[C@@H](Cc1c[nH]cn1)C(=O)N[C@H](Cc1ccccc1)C(=O)N[C@@H](CCCN=C(N)N)C(=O)N[C@@H](Cc1c[nH]c2ccccc12)C(N)=O
Hill coefficient [1]: 1.56 | binding affinity (radioligand displacement) (Melanocortin receptor 4; hek293): 24 nM

CCCC[C@H](NC(C)=O)C(=O)N[C@@H](CCC(=O)O)C(=O)N[C@@H](Cc1cnc[nH]1)C(=O)N[C@H](Cc1ccccc1)C(=O)N[C@@H](CCCNC(=N)N)C(=O)N[C@@H](Cc1c[nH]c2ccccc12)C(=O)NCCCOCCOCCOCCCNC(=O)CCC(=O)NCCCOCCOCCOCCCNC(=O)CCC(=O)N[C@@H](CCCC)C(=O)N[C@@H](CCC(=O)O)C(=O)N[C@@H](Cc1cnc[nH]1)C(=O)N[C@H](Cc1ccccc1)C(=O)N[C@@H](CCCNC(=N)N)C(=O)N[C@@H](Cc1c[nH]c2ccccc12)C(N)=O
Hill coefficient [1]: 0.97 | binding affinity (radioligand displacement) (Melanocortin receptor 4; hek293): 122 nM

CC(=O)N[C@@H](Cc1c[nH]cn1)C(=O)N[C@H](Cc1ccccc1)C(=O)N[C@@H](CCCN=C(N)N)C(=O)N[C@@H](Cc1c[nH]c2ccccc12)C(=O)NCCCC[C@H](NC(=O)CCNC(=O)[C@H](Cc1c[nH]c2ccccc12)NC(=O)[C@H](CCCN=C(N)N)NC(=O)[C@@H](Cc1ccccc1)NC(=O)[C@H](Cc1c[nH]cn1)NC(C)=O)C(=O)NCCC(=O)N[C@@H](Cc1c[nH]cn1)C(=O)N[C@H](Cc1ccccc1)C(=O)N[C@@H](CCCN=C(N)N)C(=O)N[C@@H](Cc1c[nH]c2ccccc12)C(N)=O
Hill coefficient [1]: 1.13 | binding affinity (radioligand displacement) (Melanocortin receptor 4; hek293): 15 nM

CC(=O)N[C@@H](Cc1c[nH]cn1)C(=O)N[C@H](Cc1ccccc1)C(=O)N[C@@H](CCCN=C(N)N)C(=O)N[C@@H](Cc1c[nH]c2ccccc12)C(=O)NCCCOCCOCCOCCCNC(=O)CCC(=O)N[C@@H](Cc1c[nH]cn1)C(=O)N[C@H](Cc1ccccc1)C(=O)N[C@@H](CCCN=C(N)N)C(=O)N[C@@H](Cc1c[nH]c2ccccc12)C(N)=O
Hill coefficient [1]: 1.83 | binding affinity (radioligand displacement) (Melanocortin receptor 4; hek293): 662 nM

CCCC[C@H](NC(C)=O)C(=O)N[C@@H](CCC(=O)O)C(=O)N[C@@H](Cc1c[nH]cn1)C(=O)N[C@H](Cc1ccccc1)C(=O)N[C@@H](CCCN=C(N)N)C(=O)N[C@@H](Cc1c[nH]c2ccccc12)C(=O)NCCCOCCOCCOCCCNC(=O)CCC(=O)N[C@@H](CCCC)C(=O)N[C@@H](CCC(=O)O)C(=O)N[C@@H](Cc1c[nH]cn1)C(=O)N[C@H](Cc1ccccc1)C(=O)N[C@@H](CCCN=C(N)N)C(=O)N[C@@H](Cc1c[nH]c2ccccc12)C(N)=O
Hill coefficient [1]: 1.59 | binding affinity (radioligand displacement) (Melanocortin receptor 4; hek293): 33 nM
